The target in experiment [1] is T1, WT-MγS (Mus musculus, UniProt O35486).
T1 construct: made in house; host or cells: E. coli BL21(DE3) pLysS, pET17b vector
T1 sequence (O35486 1-178): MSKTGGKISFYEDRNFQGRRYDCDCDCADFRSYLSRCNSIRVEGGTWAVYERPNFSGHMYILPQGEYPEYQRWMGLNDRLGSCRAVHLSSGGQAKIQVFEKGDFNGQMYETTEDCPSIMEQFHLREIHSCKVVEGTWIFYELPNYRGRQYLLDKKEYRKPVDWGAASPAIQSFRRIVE
Nature of the experiment: bis-ANS binding study, WT-MγS. The note with it: read-out: Percent inhibition of binding of bis-ANS, WT-MγS. As to the method:
(§1) Extrinsic fluorescence spectra were recorded using bis-ANS, a well-known surface hydrophobicity probe. The spectra were recorded between 400 and 600 nm after exciting at 390 nm. The experiment was performed on 10 μM of HγD and MγS in 50 mM K3PO4 buffer with and without our candidate drugs (100 μM). Bis-ANS stock solution was prepared in methanol whose final percentage was maintained below 7 after mixing with proteins ([81]).

Experiment [2] deals with T2, WT-HγD (Homo sapiens, UniProt P07320).
T2 construct: made in house; host or cells: E. coli BL21(DE3) pLysS, pET3d vector
T2 sequence (P07320 1-174): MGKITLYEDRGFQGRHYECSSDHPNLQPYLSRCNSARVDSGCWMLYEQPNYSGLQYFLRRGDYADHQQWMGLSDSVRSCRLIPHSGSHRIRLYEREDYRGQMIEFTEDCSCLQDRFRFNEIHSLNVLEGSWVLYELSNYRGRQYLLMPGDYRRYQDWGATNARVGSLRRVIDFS
The experiment is described as follows: bis-ANS binding study, WT-HγD. The note with it: 10 μM protein, 100 μM drug; read-out: Percent inhibition of binding of bis-ANS, WT-HγD. As to the method: as §1

The target of experiment [3] is T3, OPJ-MγS (Mus musculus, UniProt O35486, F10S).
T3 construct: made in house; host or cells: E. coli BL21(DE3) pLysS, pET17b vector
T3 sequence (O35486 1-178 F10S): T1 sequence (O35486 1-178) with F10S
The experiment is described as follows: Dynamic light scattering, OPJ-MγS. It counts as biochemical. The conditions noted are these: 400 μM drug; for Suppression of aggregate formation, DLS temperature scan: OPJ-MγS, 30–90 °C; for Percent Mass Peak 1 / Percent Mass Peak 2 / Radius (nm) Peak 1 / Radius (nm) Peak 2: OPJ-MγS 45 μM, 72 °C 20 min. As to the method: (§2) Efficacy of our selected drugs in preventing the formation of protein aggregates was measured by DLS. Measurements were performed on a Wyatt DynaPro Nanostar. For DLS temperature scan experiment, pure and filtered protein samples (1 mg/ml in 10 mM sodium phosphate buffer, pH 7.2) with and without drugs (400 μM) were analyzed by DLS over a temperature range of 30 to 90 °C. Multiple scans were run for every data point, and the results represent average of individual scans. DLS spectra were also recorded for the samples at the end point of turbidity assay.

Experiment [4] concerns γ-crystallins (bovine, HγD and HγS crystallins). Nature of the experiment: Mean aggregation suppression across all γ-crystallins tested. It is filed as biochemical. On the set-up: concentration or dose not given beside the values. The note with it: mean of all experiments in Table 2 (n=9). The source says: (§3) For a review, see the study by Roskamp et al. ([38]). […] For the mechanistic studies below these two compounds together with either drug M, chosen mostly as negative control, or the entire set of six compounds were used for comparison purpose, whereby the words “drug” or “compound” are used interchangeably in the studies later.
Table S 4: List of primers used for making WT -HγD mutants

The target in experiment [5] is T4, HγS_N143D (Homo sapiens, UniProt P22914, N144D).
T4 sequence (P22914 1-178 N144D): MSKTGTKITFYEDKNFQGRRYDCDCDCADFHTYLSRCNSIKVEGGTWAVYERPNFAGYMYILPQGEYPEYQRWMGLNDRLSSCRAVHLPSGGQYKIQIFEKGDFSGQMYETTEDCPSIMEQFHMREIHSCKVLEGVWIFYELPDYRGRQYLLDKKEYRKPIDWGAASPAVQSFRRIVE
The experiment is described as follows: Thermal aggregation (72 °C, 20 min) turbidity assay, HγS_N143D. It is filed as biochemical. The conditions noted are these: 20 min, read-out: % Suppression; for inhibition: HγS_N143D, 75 μM protein, 72 °C 20 min.
Description: as §3

Experiment [6] deals with T5, HγS_N14D (Homo sapiens, UniProt P22914, N15D).
T5 sequence (P22914 1-178 N15D): T4 sequence (P22914 1-178 N144D) with N15D, D144N
Nature of the experiment: Thermal aggregation (72 °C, 20 min) turbidity assay, HγS_N14D. It is filed as biochemical. The conditions noted are these: read-out: % Suppression; for inhibition: HγS_N14D, 75 μM protein, 72 °C 20 min.
Description: as §3

The target in experiment [7] is T1, WT-MγS. The experiment is described as follows: Dynamic light scattering, WT-MγS. The note with it: 400 μM drug; for Suppression of aggregate formation, DLS temperature scan: WT-MγS, 30–90 °C. It counts as biochemical. As to the method: as §2

Where a chain is given by its changes, count along the chain named. Where “and” joins values, the source holds several entries; their conditions need not be identical. Identical values can stand only once. Like-named read-outs stand apart in the source and are kept apart here.

Take `COC(=O)/C=C/C(C)=C\C=C\C(C)=C\C=C\C=C(C)\C=C\C=C(C)\C=C\C(=O)O` [drug B, Bixin]: the inhibition at 100 µM worked out at 11.94 ± 0.0018% in experiment [1] (10 μM protein, 100 μM drug) and 27.86 ± 0.0009% in experiment [2]. For the same compound, the “Suppression of aggregate formation, DLS temperature scan” value (“Suppression of aggregate formation” for short) in experiment [3] and in experiment [7] was “mild suppressive effects” each time. In addition, in experiment [4], the “Mean % suppression / inhibition of γ-crystallin aggregation against thermal denaturation” value (“Mean % suppression / inhibition” below) is 49% and 48.8%. Further, the inhibition is 25% in experiment [5] and 51% in experiment [6].

Take `Cc1cc(C(C#N)c2ccc(Cl)cc2)c(Cl)cc1NC(=O)c1cc(I)cc(I)c1O` (stereo not drawn) [drug C, Closantel]: the inhibition at 100 µM in experiment [1] worked out at 27.16 ± 0.0011%. In addition, in experiment [2], the inhibition at 100 µM stood at 43.82 ± 0.0012%. For the same compound, in experiment [3], the “Percent Mass Peak 1” value stood at 32%, the “Percent Mass Peak 2” value came to 68%, the “Radius (nm) Peak 1” value is reported as 21.9 nm and the “Radius (nm) Peak 2” value stood at 358.7 nm. Further, the “Suppression of aggregate formation” value in experiment [3] is given as “strong suppressive effects”. The “Mean % suppression / inhibition” value in experiment [4] was 69% and 68.6%. Moreover, in experiment [5], the inhibition at 125 µM was determined as 52%. Besides, the inhibition at 125 µM in experiment [6] was 77%. In experiment [7] (WT-MγS 45 μM, 72 °C 20 min), the “Percent Mass Peak 1” value was determined as 100% and the “Radius (nm) Peak 1” value was 86.6 nm. The “Suppression of aggregate formation” value in experiment [7] is “strong suppressive effects”.

In the case of `CC(C)=CCCC1(C)C=Cc2c(O)c3c(c(CC=C(C)C)c2O1)OC12C(=CC4CC1C(C)(C)OC2(C/C=C(/C)C(=O)O)C4O)C3=O` (stereo not drawn) [drug D, dihydrogambogic acid], the inhibition at 100 µM in experiment [1] worked out at 19.49 ± 0.0018%; in experiment [2] it was 34.5 ± 0.0006%. The “Suppression of aggregate formation” value in experiment [3] and in experiment [7] was “mild suppressive effects” throughout. Also, the “Mean % suppression / inhibition” value in experiment [4] is on record as 54%. Moreover, the inhibition at 125 µM in experiment [5] turned out to be 30%; in experiment [6], 76%.

Regarding `CC(C)=CCC[C@]1(C)C=Cc2c(O)c3c(c(CC=C(C)C)c2O1)O[C@]12C(=C[C@@H]4C[C@H]1C(C)(C)O[C@@]2(C/C=C(/C)C(=O)O)C4=O)C3=O` [drug G, Gambogic acid], the inhibition at 100 µM turned out to be 40.72 ± 0.0008% in experiment [1] and 44.64 ± 0.0011% in experiment [2]. Besides, the “Percent Mass Peak 1” value in experiment [3] was 100%; in experiment [7] (WT-MγS 45 μM, 72 °C 20 min) it was 100%. For the same compound, the “Radius (nm) Peak 1” value was determined as 79.3 nm in experiment [3] and 77.9 nm in experiment [7] (WT-MγS 45 μM, 72 °C 20 min). In addition, the “Suppression of aggregate formation” value in experiment [3] and in experiment [7] was “strong suppressive effects” each time. Besides, the “Mean % suppression / inhibition” value in experiment [4] is 64% and 64.2%. The inhibition at 125 µM turned out to be 48% in experiment [5] and 73% in experiment [6].

As to `O=C(O)CCCCCCCCCCCC[C@@H]1C=CCC1` [drug M, Chaulmoogric acid], the inhibition at 100 µM in experiment [1] (10 μM protein, 100 μM drug) was 1.95 ± 0.0017%. Besides, the inhibition at 100 µM in experiment [2] came out at 4.28 ± 0.0003%. In experiment [3], the “Percent Mass Peak 1” value was 0%, the “Percent Mass Peak 2” value is 100%, the “Radius (nm) Peak 1” value is recorded as 53.1 nm and the “Radius (nm) Peak 2” value is 5594.1 nm. In addition, the “Suppression of aggregate formation” value in experiment [3] is “no suppression”. Moreover, the “Mean % suppression / inhibition” value in experiment [4] was 42% and 42.2%. In addition, the inhibition in experiment [5] stood at 25%. Further, the inhibition in experiment [6] stood at 48%. In experiment [7] (WT-MγS 45 μM, 72 °C 20 min), the “Percent Mass Peak 1” value came to 1.4%, the “Percent Mass Peak 2” value is 98.6%, the “Radius (nm) Peak 1” value is 622.0 nm and the “Radius (nm) Peak 2” value came out at 6200.7 nm. Moreover, in experiment [7], the “Suppression of aggregate formation” value is given as “no suppression”.

With `Oc1c(Cl)cc(Cl)c(Cl)c1Cc1c(O)c(Cl)cc(Cl)c1Cl` [drug X, Hexachlorophene], the results for the inhibition at 100 µM in experiment [1] and in experiment [2] were 10.17 ± 0.0014% and 15.16 ± 0.001%, respectively. Also, the “Suppression of aggregate formation” value in experiment [3] and in experiment [7] was “mild suppressive effects” throughout. Besides, the “Mean % suppression / inhibition” value in experiment [4] is 56% and 55.8%. The inhibition at 125 µM in experiment [5] amounted to 50%; in experiment [6], 60%.

For the origin of these results see publication PMC9525908, “α-Crystallin chaperone mimetic drugs inhibit lens γ-crystallin aggregation: Potential role for cataract prevention” (The Journal of Biological Chemistry, 2022).
